Reference: the supplement of paper PMC10307832

What was measured:
Assay in all cases: relative viability (nuclei count vs DMSO), 5 days (fraction); higher = more cells survive
Salubrinal + Luminespib = compound: O=C(/C=C/c1ccccc1)NC(NC(=S)Nc1cccc2cccnc12)C(Cl)(Cl)Cl [Salubrinal] + CCNC(=O)c1noc(-c2cc(C(C)C)c(O)cc2O)c1-c1ccc(CN2CCOCC2)cc1 [Luminespib] (partner 0.01 µM)
Procedure, shortened: (§1)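 After 5 days of treatment, lung cancer cells in 1536-well plates were fixed and stained in a single step (final 0.05% Triton X-100, 1% formaldehyde, 1 ug/ml Hoechst) and their nuclei counted on 4× images. Treatment had been applied by pin tool the day after seeding as one drug alone or as a fixed anchor-drug dose with five library-drug doses (not always all listed) in √10 steps. Relative viability is the nuclei count of treated wells divided by that of vehicle wells, and values are medians of duplicate plates.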

[1] = compound: Cc1ccc2nc(NCCN)c3ncc(C)n3c2c1 + C[C@]1(O)C[C@@H](c2nc(-c3ccc4ccc(-c5ccccc5)nc4c3)c3c(N)nccn32)C1 [Linsitinib] (partner 1 µM)
Procedure, shortened: as §1

[2] = compound: Cc1ccc2nc(NCCN)c3ncc(C)n3c2c1 + COc1cccc2cc(-c3nc([C@H]4CC[C@H](C(=O)O)CC4)n4ncnc(N)c34)[nH]c12 [OSI-027] (partner 0.5 µM)
Procedure, shortened: as §1

[3] = compound: Cc1ccc2nc(NCCN)c3ncc(C)n3c2c1 + N=C(N)NC(=N)NCCc1ccccc1 [Phenformin] (partner 250 µM)
Procedure, shortened: as §1

Cell Line	relative viability (Salubrinal + Luminespib; first compound 0.08 µM)	relative viability (Salubrinal + Luminespib; first compound 0.253 µM)	relative viability (Salubrinal + Luminespib; first compound 0.8 µM)	relative viability (Salubrinal + Luminespib; first compound 2.53 µM)	relative viability (Salubrinal + Luminespib; first compound 8 µM)	relative viability ([1]; first compound 0.04 µM)	relative viability ([1]; first compound 0.1265 µM)	relative viability ([1]; first compound 0.4 µM)	relative viability ([1]; first compound 1.265 µM)	relative viability ([1]; first compound 4 µM)	relative viability ([2]; first compound 0.04 µM)	relative viability ([2]; first compound 0.1265 µM)	relative viability ([2]; first compound 0.4 µM)	relative viability ([2]; first compound 1.265 µM)	relative viability ([2]; first compound 4 µM)	relative viability ([3]; first compound 0.04 µM)	relative viability ([3]; first compound 0.1265 µM)	relative viability ([3]; first compound 0.4 µM)	relative viability ([3]; first compound 1.265 µM)	relative viability ([3]; first compound 4 µM)
BEN	0.53	0.323	0.425	0.354	0.265	0.916	0.785	1.03	0.795	0.914	0.316	0.291	0.328	0.276	0.324	0.288	0.265	0.293	0.247	0.296
NCI-H1666	0.984	0.903	0.95	0.945	1.1	0.909	0.843	0.942	0.822	0.71	0.839	0.799	0.887	0.816	0.774	0.574	0.573	0.521	0.495	0.535
LC-2-ad	1.06	1.13	1.05	0.979	0.98	0.851	0.871	0.891	0.864	0.806	0.866	0.825	0.789	0.889	0.784	0.637	0.546	0.55	0.547	0.44
SK-LU-1	0.182	0.201	0.206	0.214	0.198	1.18	1.09	1.12	1.16	1.04	0.371	0.369	0.376	0.376	0.361	0.649	0.568	0.614	0.553	0.43
COR-L 105	0.7	0.699	0.761	0.812	0.738	1.11	0.964	0.873	1.1	0.845	0.79	0.753	0.666	0.691	0.723	0.647	0.555	0.502	0.487	0.425
NCI-H1975	0.223	0.394	0.292	0.257	0.282	0.972	0.93	0.91	0.897	0.893	0.709	0.692	0.711	0.716	0.523	0.415	0.394	0.432	0.414	0.355
NCI-H1993	0.899	0.681	0.987	0.896	0.827	0.726	0.763	0.673	0.75	0.73	0.521	0.53	0.544	0.562	0.508	0.506	0.514	0.591	0.552	0.495
RERF-LC-KJ	1.31	1.37	1.41	1.13	1.08	0.84	0.895	0.863	0.795	0.73	0.596	0.639	0.566	0.604	0.52	0.404	0.374	0.462	0.453	0.353
NCI-H23	0.213	0.227	0.196	0.217	0.216	0.746	0.489	0.55	0.611	0.576	0.828	0.709	0.54	0.607	0.531	0.797	0.858	0.704	0.786	0.754
EMC-BAC-2	1.26	0.835	1.28	1.16	1.11	0.799	0.806	0.822	0.819	0.831	0.387	0.381	0.344	0.394	0.377	0.518	0.562	0.499	0.536	0.54
NCI-H2405	0.591	0.865	0.62	0.612	0.668	0.942	0.855	0.928	1.03	0.763	0.694	0.628	0.686	0.623	0.636	0.417	0.385	0.451	0.371	0.375
NCI-H1944	0.792	1.04	0.807	0.733	0.831	1.06	1.3	1.21	1.23	1.19	0.391	0.376	0.341	0.443	0.403	0.201	0.196	0.201	0.187	0.195
NCI-H358	0.277	–	0.553	0.478	0.38	0.755	0.769	0.694	0.88	0.665	0.807	0.708	0.694	0.797	0.858	0.391	0.313	0.323	0.359	0.402
EPLC-272H	0.382	0.547	0.156	0.275	0.164	1.44	1.02	1.13	1.32	1.15	0.366	0.296	0.32	0.346	0.317	0.317	0.397	0.383	0.373	0.294
NCI-H1915	0.918	0.559	1.26	0.71	0.752	1.1	–	1.16	1.1	1	0.641	0.605	–	0.696	0.594	0.359	0.384	–	0.377	0.359
NCI-H596	0.971	0.775	0.972	1.2	0.92	1.26	1.02	0.869	1.03	1.03	0.709	0.749	0.617	0.709	0.737	0.695	0.787	0.644	0.614	0.826
NCI-H322M	1.06	0.794	0.866	0.761	0.712	0.889	0.907	0.857	0.79	0.899	0.641	0.544	0.481	0.568	0.526	0.882	0.701	0.767	0.798	0.759

Cell Line	relative viability (Salubrinal + Luminespib; first compound 0.08 µM)	relative viability (Salubrinal + Luminespib; first compound 0.253 µM)	relative viability (Salubrinal + Luminespib; first compound 0.8 µM)	relative viability (Salubrinal + Luminespib; first compound 2.53 µM)	relative viability (Salubrinal + Luminespib; first compound 8 µM)	relative viability ([1]; first compound 0.04 µM)	relative viability ([1]; first compound 0.1265 µM)	relative viability ([1]; first compound 0.4 µM)	relative viability ([1]; first compound 1.265 µM)	relative viability ([1]; first compound 4 µM)	relative viability ([2]; first compound 0.04 µM)	relative viability ([2]; first compound 0.1265 µM)	relative viability ([2]; first compound 0.4 µM)	relative viability ([2]; first compound 1.265 µM)	relative viability ([2]; first compound 4 µM)	relative viability ([3]; first compound 0.04 µM)	relative viability ([3]; first compound 0.1265 µM)	relative viability ([3]; first compound 0.4 µM)	relative viability ([3]; first compound 1.265 µM)	relative viability ([3]; first compound 4 µM)
NCI-H2228	0.105	0.0961	0.154	0.108	0.174	0.642	0.443	0.587	0.751	0.44	0.589	0.656	0.617	0.59	0.719	0.29	0.525	0.452	0.284	0.244
NCI-H647	0.208	0.243	0.27	0.356	0.154	1.34	1.15	1.22	1.08	1.18	0.566	0.607	0.637	0.634	0.719	0.758	0.533	0.494	0.539	0.476
NCI-H1793	0.231	0.168	0.206	0.162	0.244	1.04	0.951	0.789	0.744	0.845	0.305	0.314	0.236	0.317	0.29	0.435	0.422	0.272	0.324	0.32
NCI-H2085	0.473	0.47	0.562	0.366	0.496	0.894	0.941	0.928	0.862	0.87	0.839	0.819	0.658	0.906	0.742	0.817	0.762	0.711	0.722	0.744
SW 1573	0.211	0.26	0.206	0.238	0.169	0.928	0.824	0.883	0.985	0.821	0.737	0.579	0.711	0.634	0.409	0.371	0.368	0.395	0.424	0.231
NCI-H727	0.407	0.337	0.337	0.312	0.274	0.322	0.352	0.285	0.308	0.338	0.852	0.707	0.754	0.645	0.585	0.436	–	0.527	0.555	0.64
NCI-H441	0.312	0.39	0.393	0.338	0.385	0.752	0.509	0.714	0.563	0.504	0.615	0.785	0.684	0.654	0.581	0.791	0.85	0.922	0.923	0.769
LOU-NH91	0.304	0.381	0.358	0.305	0.386	0.964	0.865	0.977	0.942	0.959	0.795	0.726	0.708	0.762	0.668	0.729	0.693	0.756	0.654	0.664
NCI-H3122	0.117	0.112	0.0978	0.118	0.1	1	1.03	0.999	0.982	1.04	1.06	0.953	0.858	0.828	0.678	0.411	0.379	0.399	0.36	0.288
NCI-H460	0.0402	0.0238	0.031	0.0302	0.0364	0.759	0.735	0.751	0.692	0.642	0.674	0.598	0.67	0.718	0.537	0.515	0.512	0.525	0.539	0.394
NCI-H650	0.753	0.791	0.845	0.786	0.767	0.852	0.828	0.994	0.911	0.69	0.558	0.585	0.443	0.538	0.513	0.462	0.476	0.437	0.441	0.425
NCI-H661	0.912	0.763	0.919	0.905	0.941	0.644	0.511	0.449	–	0.543	0.808	0.713	0.732	0.82	0.693	0.26	0.375	0.254	0.293	0.308
NCI-H1734	0.174	0.175	0.199	0.17	0.241	0.887	0.803	0.765	0.884	0.814	0.619	0.557	0.502	0.551	0.543	0.425	0.417	0.355	0.38	0.389
LXF-289	0.74	0.595	0.569	0.727	0.643	0.981	0.949	0.967	0.975	1.01	0.898	0.79	0.901	0.872	0.776	0.528	0.546	0.543	0.486	0.524
H3255	0.939	0.948	1.14	0.847	0.786	0.955	0.876	0.819	0.915	0.944	0.663	0.588	0.592	0.522	0.541	0.396	0.343	0.396	0.355	0.382
201T	1.06	1.05	1.11	1.09	1.07	1	1.09	1.04	0.98	0.992	0.863	0.586	0.761	0.805	0.64	0.46	0.417	0.452	0.465	0.453
